Assay results from paper PMC4702177, “Discovering new mTOR inhibitors for cancer treatment through virtual screening methods and in vitro assays” (Scientific Reports, 2016).
Several values for one entry are separate records, joined by “and”; a condition that tells them apart may be missing. Equal values may be shown once.

Legend:
mTOR kinase = molecular target: mTOR kinase; parameters: method as in PMID 11575159; conditions: read-out: IC50 (mTOR kinase, reported); cited from earlier work
[1] = molecular target: T1, human recombinant mTOR kinase (Homo sapiens, UniProt P42345); assay: In vitro mTOR kinase assay (K-LISA ELISA, p70S6K-GST substrate); type: biochemical; conditions: for inhibition at 10 µM: triplicate measurements; for IC50: mean ± SD of triplicate measurements
T1 construct: a purified recombinant mTOR fragment (amino acids 1360-2549, CBA104-1KIT from Calbiochem); purchased Calbiochem CBA104-1KIT
T1 sequence (P42345 1360-2549): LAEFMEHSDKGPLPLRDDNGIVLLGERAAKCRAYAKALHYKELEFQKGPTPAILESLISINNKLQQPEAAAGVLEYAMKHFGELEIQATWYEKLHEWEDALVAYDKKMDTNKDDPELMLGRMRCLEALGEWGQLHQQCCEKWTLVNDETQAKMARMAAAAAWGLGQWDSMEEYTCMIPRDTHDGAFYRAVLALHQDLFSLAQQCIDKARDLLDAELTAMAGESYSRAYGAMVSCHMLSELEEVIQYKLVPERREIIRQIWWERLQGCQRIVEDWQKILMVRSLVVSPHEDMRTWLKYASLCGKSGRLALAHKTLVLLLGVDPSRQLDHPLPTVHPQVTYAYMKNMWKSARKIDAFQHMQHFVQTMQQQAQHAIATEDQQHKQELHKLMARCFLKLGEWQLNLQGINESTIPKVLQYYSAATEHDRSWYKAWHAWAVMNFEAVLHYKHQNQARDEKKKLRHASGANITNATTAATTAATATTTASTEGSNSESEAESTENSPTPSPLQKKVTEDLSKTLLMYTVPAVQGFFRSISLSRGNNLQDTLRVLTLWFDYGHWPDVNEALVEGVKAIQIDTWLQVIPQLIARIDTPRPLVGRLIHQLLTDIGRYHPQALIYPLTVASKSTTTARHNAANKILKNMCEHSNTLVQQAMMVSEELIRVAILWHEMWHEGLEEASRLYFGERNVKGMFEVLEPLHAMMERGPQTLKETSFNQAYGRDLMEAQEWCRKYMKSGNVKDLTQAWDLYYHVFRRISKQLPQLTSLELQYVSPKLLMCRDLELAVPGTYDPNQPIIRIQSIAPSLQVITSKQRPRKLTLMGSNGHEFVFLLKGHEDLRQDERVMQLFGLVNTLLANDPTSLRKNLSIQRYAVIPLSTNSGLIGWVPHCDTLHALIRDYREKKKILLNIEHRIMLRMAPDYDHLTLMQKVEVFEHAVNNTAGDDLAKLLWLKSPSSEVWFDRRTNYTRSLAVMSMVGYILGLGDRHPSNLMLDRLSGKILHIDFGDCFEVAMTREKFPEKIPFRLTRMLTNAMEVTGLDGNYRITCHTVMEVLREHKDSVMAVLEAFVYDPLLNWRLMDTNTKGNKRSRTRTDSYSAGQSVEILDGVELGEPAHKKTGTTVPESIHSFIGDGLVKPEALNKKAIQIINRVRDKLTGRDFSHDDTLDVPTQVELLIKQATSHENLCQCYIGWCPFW
Method: The mTOR kinase inhibitory activities of the 41 final virtual hits were determined using an ELISA-based activity assays that utilize a p70S6K-GST fusion protein as a specific mTOR substrate (see the Experimental Section for details). For the initial screening, all the activities were measured at a concentration of 10 μM.
mTOR activity was evaluated using a purified recombinant mTOR fragment (amino acids 1360-2549, CBA104-1KIT from Calbiochem). The K-LISA^TM mTOR activity kit is an ELISA-based activity assay for detection of phosphorylation of a p70S6K-GST fusion protein (a specific mTOR substrate) in the presence of ATP. The assay was optimized for use with mTOR as described in the Calbiochem protocol. The assay takes place in 96-well plates and can be divided into two phases: an mTOR kinase reaction phase and phosphorylated substrate detection phase.
In the kinase reaction phase, the following components were mixed in the same well: 5 μL of a solution containing 5 μg/mL mTOR substrate (recombinant p70S6K-GST fusion protein) in Tris-buffered saline (1 L TBS: sodium chloride 8.8 g, Tris Base 2.4 g, HCl 13 mL, Tween-20 10 ml, ddH2O), 5 μL ATP solution containing 20 mM ATP diluted in kinase assay buffer (pH 7.4, 0.01% Tween 20, 1 mM EDTA, 10 mM MgCl2, 1 mM DTT), […] of human recombinant mTOR kinase at the optimal concentration (80 ng/well) diluted in kinase assay buffer, and 5 μL of serial dilutions of inhibitors diluted in DMSO and kinase assay buffer. For each inhibitor concentration, the assay was run in triplicate. The final reaction volume was 100 μL per well, and samples incubated for 30 min at room temperature.
The kinase reaction was stopped by adding 10 μL kinase stop solution to each well. The phosphorylated substrate was detected using Anti-p70S6K-pT389 antibody, followed by detection with HRP-Antibody Conjugate and TMB Substrate. Then, ELISA stop solution was added to each well to stop the reaction, and relative mTOR inhibition activity was determined by reading the absorbance at dual wavelengths of 450/540 nm.

C6 (Glioma cell) = assay: In vitro cell proliferation assay; type: cell-based; conditions: data not shown
Method: (§1) Most human breast cancer cells and cervical cancer cells become resistant to current chemotherapeutic drugs due to mutation of apoptotic mechanisms. It has been reported that MCF-7 cells are resistant to most of the drugs approved by the US Food and Drug Administration (FDA), including paclitaxel, doxorubicin, 5-fluorouracil, etoposide, and camptothecin[31][32].
(§2) Cell proliferation was measured with an MTS assay (CellTiter 96 Aqueous ONE Solution kit; Promega, Madison, USA). MCF-7, HeLa, MGC-803, C6 and U87 cells in log-phase were seeded (5 × 10^3 cells/well) in 96-well plates for 24 h, and then the medium were replaced with fresh medium containing different concentrations of compounds. […] After incubation for 48 h, the cells were further incubated with 20 μL of MTS for 1–4 h at 37 °C in a humidified incubator with 5% CO2. The absorbance at 490 nm was measured using a mircoplate reader (Model680, Bio-Rad; Hercules, CA, USA). The inhibition rate (%) was calculated as equation (1): […]
(§3) IC50 values were determined from the results of at least three independent tests and calculated from the inhibition curves.

[2] = tested on: HeLa (human cervical cancer cell); assay: In vitro cell proliferation assay; type: cell-based; conditions: data not shown
Method: as §1, §2, §3

[3] = tested on: MCF-7 (human breast cancer cell); assay: In vitro cell proliferation assay; type: cell-based; conditions: data not shown
Method: as §1, §2, §3

[4] = tested on: MGC-803 (human gastric cancer); assay: In vitro cell proliferation assay; type: cell-based; conditions: data not shown
Method: as §1, §2, §3

U87 cells (Glioma cell) = assay: In vitro cell proliferation assay; type: cell-based; conditions: data not shown
Method: as §1, §2, §3

SMILES: COc1c(-c2ccoc2)oc2ccc(C)cc2c1=O [Compound 37]
- inhibition at 10 µM [1]: 22%

SMILES: O=[N+]([O-])c1c(Nc2ccc3c(c2)OCO3)cc(N2CCOCC2)c2nonc12 [Compound 18]
- inhibition at 10 µM [1]: 38%
- IC50 [1]: > 50 µM

SMILES: COC(=O)c1sc2nc(-c3ccccc3)nc(N3CCOCC3)c2c1C [Compound 25]
- inhibition at 10 µM [1]: 36%
- IC50 [1]: > 50 µM

SMILES: Cc1cc(=O)n2nc(N)c(/N=N/c3ccccc3)c2[nH]1 [Compound 9]
- inhibition at 10 µM [1]: 23%

SMILES: Clc1ccc(-c2nnc3sc(-c4cnccn4)nn23)cc1 [Compound 20]
- inhibition at 10 µM [1]: 55%
- IC50 [1]: < 10 µM and 9.2 µM

SMILES: O=C(CCl)Nc1ccc(/C=C2\CCCn3c2nc2cc(NC(=O)CCl)ccc2c3=O)cc1 [Compound 36]
- inhibition at 10 µM [1]: 31%
- IC50 [1]: 14.9 ± 1.01 µM

SMILES: Nc1nc2ncc(-c3n[nH]cc3[N+](=O)[O-])cn2n1 [Compound 12]
- inhibition at 10 µM [1]: 30%

SMILES: NC(=O)c1nnn(Cc2cc(Cl)c(C(=O)c3ccc(Cl)cc3)c(Cl)c2)c1N [Compound 33]
- inhibition at 10 µM [1]: 21%

SMILES: CNc1cccc2c(NC(=S)NC(=O)c3cccc(C(=O)NC(C)=S)c3)cccc12 [Compound 40]
- inhibition at 10 µM [1]: 91%
- IC50 [1]: < 10 µM and 1.47 µM
- anti-proliferative activity (C6 (Glioma cell)): do not show anti-proliferative activity
- anti-proliferative activity [2]: do not show anti-proliferative activity
- anti-proliferative activity [3]: do not show anti-proliferative activity
- anti-proliferative activity [4]: do not show anti-proliferative activity
- anti-proliferative activity (U87 cells (Glioma cell)): do not show anti-proliferative activity

SMILES: O=C(NC(=S)Nc1ccc2oc(-c3cccnc3)nc2c1)c1ccco1 [Compound 26]
- inhibition at 10 µM [1]: 33%
- IC50 [1]: > 50 µM

SMILES: COc1cccc(-c2nn3c(N)c(C#N)c(-c4cccnc4)nc3c2C)c1 [Compound 27]
- inhibition at 10 µM [1]: 38%
- IC50 [1]: 28.6 ± 2.65 µM

SMILES: c1coc(-c2nnc3sc(-c4cnccn4)nn23)c1 [Compound 21]
- inhibition at 10 µM [1]: 50%
- IC50 [1]: 14.4 ± 2.02 µM

SMILES: COc1cc(/C=C2/SC(=S)N(C)C2=O)ccc1Oc1nc(N2CCOCC2)nc(N2CCOCC2)n1 [Compound 6]
- inhibition at 10 µM [1]: 22%
